“And” between values parts separate entries of the source, which are not always exact repeats. Equal entries are not always repeated.
System: RET-altered solid tumors
Test: Phase 1 trial: anti-tumor efficacy (RECIST 1.1)
Format: in vivo, human
Conditions: for PFS Follow-up (m) / PFS: Type of event: individual patients; for Best overall response: Partial response / Best overall response: Progressive disease / Best overall response: Stable disease / DCR, % (95% CI) / Median DoR, months (95% CI) / Median PFS, months (95% CI) / Median TTR, months (95% CI) / ORR, % (95% CI): patients with detectable RET variations
Protocol: Radiologic tumor assessments were conducted by computed tomography (CT) or magnetic resonance imaging (MRI) of brain, chest, abdomen, and pelvis at baseline, 4 weeks for the first tumor assessment, then every 8 weeks (± 7 days) for 1 year, and every 12 weeks (± 7 days) thereafter. MTC patients were longitudinally monitored for serum calcitonin and carcinoembryonic antigen (CEA) levels.

[1] = RP2D, PTC, treatment-naïve (n = 1)
[2] = Treatment-naïve, 40 mg BID (n = 1)
[3] = Treatment-naïve, 160 mg BID (n = 37)
[4] = Treatment-naïve, 200 mg BID (n = 2)
[5] = Treatment-naïve, all doses (n = 40)
[6] = baseline ctDNA detectable RET alterations (n = 61)
[7] = baseline ctDNA undetectable RET alterations (n = 53)
[8] = ctDNA analysis, all patients (n = 114)

Compound: COc1ccc(CN2C3CC2CN(c2ccc(-c4cc(N5CC(C)(O)C5)cn5ncc(C#N)c45)cn2)C3)cn1 [SY-5007, 6-(3-hydroxy-3-methylazetidin-1-yl)-4-(6-(6-((6-methoxypyridin-3-yl)methyl)-3,6-diazabicyclo[3.1.1]heptan-3-yl)pyridin-3-yl)pyrazolo[1,5-a]pyridine-3-carbonitrile]
- ORR (95% CI) [1]: 0 (0.0-97.5) %
- Partial response [1]: 0 (0.0) n (%)
- Progressive disease [1]: 0 (0.0) n (%)
- Stable disease [1]: 1 (100.0) n (%)
- Median PFS (95% CI) [2]: 1.67 (NE-NE) months
- ORR (95% CI) [2]: 0 (0.0–97.5) %
- Partial response [2]: 0 (0.0) n (%)
- Progressive disease [2]: 0 (0.0) n (%)
- Stable disease [2]: 1 (100.0) n (%)
- DCR (95% CI) (Treatment-naïve, 40 mg BID (n = 1), 40 mg twice daily): 100.0 (2.5–100.0) %
- DCR (95% CI) [3]: 94.6 (81.8–99.3) %
- Median DoR (95% CI) [3]: 14.5 (9.26-NE) months
- Median PFS (95% CI) [3]: 15.5 (9.23-NE) months
- Median TTR (95% CI) [3]: 2.75 (0.98–2.89) months
- ORR (95% CI) [3]: 70.3 (53.0–84.1) %
- Partial response [3]: 26 (70.3) n (%)
- Progressive disease [3]: 2 (5.4) n (%)
- Stable disease [3]: 9 (24.3) n (%)
- DCR (95% CI) [4]: 100.0 (15.8–100.0) %
- Median DoR (95% CI) [4]: 5.32 (5.06-NE) months
- Median PFS (95% CI) [4]: 6.22 (5.98-NE) months
- Median TTR (95% CI) [4]: 0.93 (0.91-NE) months
- ORR (95% CI) [4]: 100.0 (15.8–100.0) %
- Partial response [4]: 2 (100.0) n (%)
- Progressive disease [4]: 0 (0.0) n (%)
- Stable disease [4]: 0 (0.0) n (%)
- DCR (95% CI) [5]: 95.0 (83.1–99.4) %
- Median DoR (95% CI) [5]: 14.5 (6.47–NE) months
- Median PFS (95% CI) [5]: 15.5 (9.23–NE) months
- Median TTR (95% CI) [5]: 2.75 (0.95–2.89) months
- ORR (95% CI) [5]: 70.0 (53.5–83.4) %
- Partial response [5]: 28 (70.0) n (%)
- Progressive disease [5]: 2 (5.0) n (%)
- Stable disease [5]: 10 (25.0) n (%)
- Estimated 6-month PFS rate (all patients): 86.1%
- Estimated 12-month PFS rate (all patients): 68.9%
- Patients with progression events or death (all patients in phase 1): 29 (23.8%) n (%)
- DCR (95% CI) [6]: 96.7 (88.7-99.6) %
- Median DoR (95% CI) [6]: 13.0 (9.23-19.9) months
- Median PFS (95% CI) [6]: 13.8 (10.0-15.5) months
- Median TTR (95% CI) [6]: 2.79 (1.01-6.73) months
- ORR (95% CI) [6]: 57.4 (44.1-70.0) %
- Partial response [6]: 35 (57.4) n (%)
- Progressive disease [6]: 2 (3.3) n (%)
- Stable disease [6]: 24 (39.3) n (%)
- DCR (95% CI) [7]: 94.3 (84.3-98.8) %
- Median TTR (95% CI) [7]: 3.15 (2.75-6.30) months
- ORR (95% CI) [7]: 60.4 (46.0-73.5) %
- Partial response [7]: 32 (60.4) n (%)
- Progressive disease [7]: 3 (5.7) n (%)
- Stable disease [7]: 18 (34.0) n (%)
- DCR (95% CI) [8]: 95.6 (90.1-98.6) %
- Median DoR (95% CI) [8]: 19.9 (12.8-NE) months
- Median PFS (95% CI) [8]: 21.1 (13.8-NE) months
- Median TTR (95% CI) [8]: 2.79 (2.75-4.66) months
- ORR (95% CI) [8]: 58.8 (49.2-67.9) %
- Partial response [8]: 67 (58.8) n (%)
- Progressive disease [8]: 5 (4.4) n (%)
- Stable disease [8]: 42 (36.8) n (%)
- ORR (ctDNA-detectable KIF5B-RET (27/46)): 58.7%
- ORR (ctDNA-detectable RET mutations (3/9)): 33.3%
- ORR (ctDNA-detectable other RET fusions (5/7)): 71.4%
- Median PFS (detectable RET, concomitant TP53 mutation): 10.1 months
- ORR (detectable RET, concomitant TP53 mutation (11/22)): 50.0%
- Median PFS (detectable RET, without TP53 mutation): 15.4 months
- ORR (detectable RET, without TP53 mutation (24/39)): 61.5%
- ORR (dose-escalation phase (9/17)): 52.9%
- DCR (dose-escalation phase (16/17)): 94.1%
- ORR (dose-expansion phase (58/99)): 58.6%
- DCR (dose-expansion phase (95/99)): 96.0%
- 1-year DoR rate (in vivo): 74.1%
- PFS Follow-up (m) (GC, 160mg BID): 1.02 m
- PFS: Type of event (GC, 160mg BID): Censoring
- PFS Follow-up (m) (MTC, 160mg BID): 5.75 m and 0.99 m and 2.76 m and 2.66 m and 6.41 m and 4.60 m and 0.85 m and 0.92 m and 14.72 m and 6.44 m and 11.96 m and 6.51 m and 13.90 m and 8.41 m and 4.57 m and 8.51 m and 6.60 m and 2.86 m and 8.38 m
- PFS: Type of event (MTC, 160mg BID): Censoring
- PFS Follow-up (m) (NSCLC, 20mg BID): 27.14 m
- PFS Follow-up (m) (NSCLC, 20mg QD): 4.83 m
- PFS: Type of event (NSCLC, 20mg QD): Censoring
- PFS Follow-up (m) (NSCLC, 40mg BID): 25.07 m and 10.29 m and 1.68 m
- PFS: Type of event (NSCLC, 40mg BID): Censoring
- PFS Follow-up (m) (NSCLC, 80mg BID): 23.30 m and 6.64 m and 23.23 m
- PFS: Type of event (NSCLC, 80mg BID): Censoring
- PFS Follow-up (m) (NSCLC, 120mg BID): 21.39 m and 21.42 m and 21.13 m
- PFS: Type of event (NSCLC, 120mg BID): Censoring
- PFS Follow-up (m) (NSCLC, 200mg BID): 11.99 m and 11.96 m and 5.98 m and 5.75 m and 17.74 m and 3.15 m and 6.47 m and 12.16 m and 0.89 m
- PFS: Type of event (NSCLC, 200mg BID): Censoring
- PFS Follow-up (m) (PTC, 160mg BID): 8.35 m and 2.79 m and 8.38 m and 8.48 m and 6.67 m and 2.89 m and 2.92 m
- ORR (non-clearance or unknown RET alterations at Cycle 1 Day 28 (16/42)): 38.1%
- Best overall response: Partial response (TP53 mutant, n=22): 11 (50.0)
- Best overall response: Progressive disease (TP53 mutant, n=22): 0 (0.0)
- Best overall response: Stable disease (TP53 mutant, n=22): 11 (50.0)
- DCR, % (95% CI) (TP53 mutant, n=22): 100.0 (84.6-100.0) %
- Median DoR, months (95% CI) (TP53 mutant, n=22): 13.0 (2.82-NE) months
- Median PFS, months (95% CI) (TP53 mutant, n=22): 10.1 (6.21-NE) months
- Median TTR, months (95% CI) (TP53 mutant, n=22): 2.89 (0.95-NE) months
- ORR, % (95% CI) (TP53 mutant, n=22): 50.0 (28.2-71.8) %
- Best overall response: Partial response (TP53 wild-type, n=39): 24 (61.5)
- Best overall response: Progressive disease (TP53 wild-type, n=39): 2 (5.1)
- Best overall response: Stable disease (TP53 wild-type, n=39): 13 (33.3)
- DCR, % (95% CI) (TP53 wild-type, n=39): 94.9 (82.7-99.4) %
- Median DoR, months (95% CI) (TP53 wild-type, n=39): 19.9 (6.47-NE) months
- Median PFS, months (95% CI) (TP53 wild-type, n=39): 15.4 (9.23-NE) months
- Median TTR, months (95% CI) (TP53 wild-type, n=39): 2.79 (0.98-6.73) months
- ORR, % (95% CI) (TP53 wild-type, n=39): 61.5 (44.6-76.6) %
- Best overall response: Partial response (all patients, n=61): 35 (57.4)
- Best overall response: Progressive disease (all patients, n=61): 2 (3.3)
- Best overall response: Stable disease (all patients, n=61): 24 (39.3)
- DCR, % (95% CI) (all patients, n=61): 96.7 (88.7-99.6) %
- Median DoR, months (95% CI) (all patients, n=61): 13.0 (9.23-19.9) months
- Median PFS, months (95% CI) (all patients, n=61): 13.8 (10.0-15.5) months
- Median TTR, months (95% CI) (all patients, n=61): 2.79 (1.01-6.73) months
- ORR, % (95% CI) (all patients, n=61): 57.4 (44.1-70.0) %
- ORR (patients with rapid ctDNA clearance of RET alteration): 100%
- Median TTR (patients with rapid ctDNA decline/clearance of RET alteration): 0.91 months

Reference: article PMC11532403 (Signal Transduction and Targeted Therapy, 2024)
